System: circulating lymphocytes
Assay: Assessment of in vivo efficacy: circulating lymphocytes after oral administration
Design: species or system rat
Conditions: 6 h after oral administration of 10 mg/kg to normotensive male Wistar rats, compared to vehicle-treated group; mean ± SEM
Method: The efficacy of the compounds of formula (I) is assessed by measuring the circulating lymphocytes after oral administration of 3 to 30 mg/kg of a compound of formula (I) to normotensive male Wistar rats. The animals are housed in climate-controlled conditions with a 12 h-light/dark cycle, and have free access to normal rat chow and drinking water. Blood is collected before and 3, 6 and 24 h after drug administration. Full blood is subjected to hematology using Advia Hematology system (Bayer Diagnostics, Zurich, Switzerland).
All data are presented as mean±SEM. Statistical analyses are performed by analysis of variance (ANOVA) using Statistica (StatSoft) and the Student-Newman-Keuls procedure for multiple comparisons. The null hypothesis is rejected when p<0.05.
Lymphocyte counts 6 h after oral administration have been measured for 39 of the 258 exemplified compounds and are in the range of −82% to −48% with an average of −65%.

Compound | Lymphocyte counts [%]
CCN(CC)c1cc(-c2nc(-c3cc(C)c(OC[C@@H](O)CO)c(C)c3)no2)cc(C)n1 [Example 11, (S)-3-{4-[5-(2-diethylamino-6-methyl-pyridin-4-yl)-[1,2,4]oxadiazol-3-yl]-2,6-dimethyl-phenoxy}-propane-1,2-diol] | −70 ± 2
CCc1cc(-c2nnc(-c3cc(C)nc(N(CC)CC)c3)s2)cc(C)c1OC[C@@H](O)CNC(=O)CO [Example 94, N—((S)-3-{4-[5-(2-diethylamino-6-methyl-pyridin-4-yl)-[1,3,4]thiadiazol-2-yl]-2-ethyl-6-methyl-phenoxy}-2-hydroxy-propyl)-2-hydroxy-acetamide] | −75 ± 6
CCc1cc(-c2nc(-c3cc(C)nc(N(CC)CC)c3)no2)cc(C)c1OC[C@@H](O)CNC(=O)CO [Example 80, N—((S)-3-{4-[3-(2-diethylamino-6-methyl-pyridin-4-yl)-[1,2,4]oxadiazol-5-yl]-2-ethyl-6-methyl-phenoxy}-2-hydroxy-propyl)-2-hydroxy-acetamide] | −68 ± 2
COc1cc(-c2noc(-c3cc(C)nc(N(C)C(C)C)c3)n2)cc(Cl)c1OC[C@@H](O)CO [Example 149, (S)-3-(2-chloro-4-{5-[2-(isopropyl-methyl-amino)-6-methyl-pyridin-4-yl]-[1,2,4]oxadiazol-3-yl}-6-methoxy-phenoxy)-propane-1,2-diol] | −82 ± 2
CCc1cc(-c2noc(-c3cc(C)nc(N(C)C(C)C)c3)n2)cc(C)c1OC[C@@H](O)CO [Example 24, (S)-3-(2-Ethyl-4-{5-[2-(isopropyl-methyl-amino)-6-methyl-pyridin-4-yl]-[1,2,4]oxa-diazol-3-yl}-6-methyl-phenoxy)-propane-1,2-diol] | −72 ± 1

Reference: patent US8592460B2, “Amino-pyridine derivatives as S1P1 /EDG1 receptor agonists” (Actelion Pharmaceuticals Ltd., priority 2007, dated 2013)
